Experiments:
pre-weaning age mice = test: Naloxone-induced withdrawal jumping after morphine dosing in early postnatal mice; type: in vivo
Procedure: Animals were injected with morphine alone or morphine mixed with increasing amounts of 6β-naltrexol. Injections were started on postnatal day 12 (PD12) and continued for 5 days. On days 1-3 morphine was injected at 10 mg/kg, and at 20 mg/kg on days 4 and 5. On day 6 (PD18) a final injection of 20 mg/kg was made, and 3 hours later mice were injected with 30 mg/kg naloxone to induce withdrawal. All injections were subcutaneous. When Morphine was co-injected with 6β-naltrexol the latter was held at a constant ratio when the Morphine dose was increased on days 4-6. Because of the changing Morphine dosages the 6β-naltrexol dose is reported as a ratio relative to Morphine, or as a dose range. Immediately upon injection with naloxone mice were placed in a clear plastic container with a 6 inch square base and 10 inches tall, with a lid. Withdrawal jumping was videotaped and jumps were scored in a 15 minute interval.
Summary data are presented as means+1 SEM unless otherwise indicated Continuous data (drug concentrations) were analyzed using one-way ANOVA and post hoc comparisons were made using either Dunnett's procedure (for one-to-many comparisons) or t-tests (for all-pairs contrasts). In the latter case, p-values were adjusted for multiple comparisons using Hommel's method (Hommel, G. (1988) Biometrika 75:383-386). Data were log transformed to account for heteroscedasticity. When ratio values such as the brain/plasma ratio were compared, these were log-transformed before analysis to account for the constrained structure of ratio variables (e.g., Heslop, D. (2009) Geophys. J. Int. 178:159-161; Schilling K, et al. (2012) J Neurosci. 32:12651-12656). The dependence of jumping behavior on 6β-naltrexol levels was modelled using a 4-parametric log-normal curve taking into account that the response was a count variable. AUCs were integrated over the time span analyzed (i.e., from 0 to 240 min; Wolfsegger, M J, et al. (2009) J Pharmacokinet Pharmacodyn 36:479-494). Confidence intervals for AUCs were obtained by bootstrapping, as recommended in Jaki & Wolfsegger (Jaki, T, et al (2009) Pharmaceutical Statistics 8:12-24). All statistical procedures were implemented in R (R Core Team, 2015), using the packages multcomp (Hothorn, T, et al. (2008) Biometrical Journal 50:346-363) for multiple comparisons, PK (Jaki, T, et al. (2011) Pharmaceutical Statistics 10:284-288) for pharmacokinetic analyses, and drc (Ritz, C, et al. (2005) Bioassay analysis using R. J. Stat. Softw. 12:22) for dose-response fitting.
Considering that 6β-naltrexol continues to penetrate the brain at high levels prior to PD20 experiments were conducted to determine whether concomitant administration of 6β-naltrexol reduces withdrawal behaviors in pre-weaning age mice. A morphine dosing schedule was adapted based on studies in early postnatal rats and adult mice (Kest B. et al. (2002) Neuroscience 115:463-469; Jones, K L, et al. (1995) Behav. Neurosci. 109:1189-1198). Mice were injected with morphine alone, with morphine in combination with increasing concentrations of 6β-naltrexol, or saline alone, starting at P12 and continuing for 6 days. Withdrawal was then induced with an injection of naloxone. There was robust jumping characteristic of adult withdrawal behavior (Kest B, et al. (2002) Neuroscience 115.463-469), but not previously reported for pre-weaning mice or rats to our knowledge. […] At the highest dose tested, 0.5-1.0 mg/kg (= 1/20th that of morphine), withdrawal jumping is 94% reduced. The lowest 6β-naltrexol dose tested, 0.0033-0.0066 mg/kg (= 1/3000th that of morphine) caused a 20% decrease in jumping. There is also a time component to the effect of 6β-naltrexol on jumping behavior (FIG. 3B). As 6β-naltrexol levels were increased the jumps observed in a 15 minute testing bout were increasingly delayed. […]

[1] = Drug levels in plasma, brain and liver during postnatal development; conditions: for Plasma levels: 45 minutes after single injection; for Brain / Liver / Plasma: single injection
Procedure: Drugs were dissolved in saline at concentrations between 10 and 20 mg/ml, and all dilutions were made in saline. Morphine was purchased from the Ohio State Medical Center pharmacy as a 15 mg/ml solution in saline. Animals were injected subcutaneously in the region around the right hind-quarters. […] After injection and variable survival times adult and pregnant mice were euthanized by cervical dislocation, and brain, liver and plasma were collected, quickly frozen on dry-ice and stored at −70° C. until processing After euthanizing the dam, embryos were collected into a large (150×15 mm) petri dish and kept on ice while maternal tissues were processed. All embryonic tissues were then dissected and collected in a cold room at 4° C. in order to facilitate and preserve tissue integrity during dissection, then stored at −70° C. […] Samples were later thawed, processed and analyzed via liquid chromatography-tandem mass spectrometry (LC-MS/MS) to quantify levels of drug. Detailed methods for tissue processing and LC-MS/MS analysis are located in the supplemental information.

[2] = adult mice; 10 minutes after injection; cited from earlier work

SMILES: Oc1ccc2c3c1O[C@H]1[C@H](O)CC[C@@]4(O)[C@@H](C2)N(CC2CC2)CC[C@]314 [6β-naltrexol]
- total jumps in the first three time bins (up to 4.5 mins) (pre-weaning age mice; 0.0033 mg/kg, 73+28 with no 6β-naltrexol, p=0.07): 37+29 jumps
- latency-to-first-jump (pre-weaning age mice; 0.01-0.02 mg/kg (1/1000th the dose of morphine)): 118+31 sec
- latency-to-first-jump (pre-weaning age mice; 0.05-0.1 mg/kg (1/200th the dose of morphine)): 163+46 sec
- Survival (pre-weaning age mice; all conditions and all animals tested by this procedure): 100%
- inhibitory dose 50 (ID50), withdrawal jumping (pre-weaning age mice; co-injected with morphine 10-20 mg/kg s.c. PD12-PD18, naloxone 30 mg/kg, jumps in 15 minutes): 0.022 to 0.044 mg/kg
- withdrawal jumping reduced (pre-weaning age mice; highest dose tested, 0.5-1.0 mg/kg (1/20th that of morphine)): 94%
- latency-to-first-jump (pre-weaning age mice; lowest dose (1/3000th the dose of morphine), 38+8 sec with no 6β-naltrexol): 128+44 sec
- decrease in jumping (pre-weaning age mice; lowest dose tested, 0.0033-0.0066 mg/kg (1/3000th that of morphine)): 20%
- ID50 dose lower than the morphine dose used for inducing dependence (pre-weaning age mice; mouse, in vivo): ~500 fold
- ID50 relative to the morphine dose (pre-weaning age mice; ratio of 6β-naltrexol to morphine): 1/450
- Plasma levels ([1]; PD7): 3660+350 ng/ml
- Brain:Plasma Kp ratio ([1]; PD7, survival time 45 min): 0.86
- Liver:Plasma Kp ratio ([1]; PD7, survival time 45 min): 4.3
- Brain ([1]; PD7, survival time 45 min): 3030 ± 340 ng/g
- Liver ([1]; PD7, survival time 45 min): 15220 ± 1750 ng/g
- Plasma ([1]; PD7, survival time 45 min): 3513 ng/mL
- Brain:Plasma Kp ratio ([1]; PD14, survival time 45 min): 2
- Liver:Plasma Kp ratio ([1]; PD14, survival time 45 min): 3.6
- Brain ([1]; PD14, survival time 45 min): 2860 ± 800 ng/g
- Liver ([1]; PD14, survival time 45 min): 5050 ± 1260 ng/g
- Plasma ([1]; PD14, survival time 45 min): 1410 ± 370 ng/mL
- Brain:Plasma Kp ratio ([1]; PD20, survival time 20 min): 0.33
- Liver:Plasma Kp ratio ([1]; PD20, survival time 20 min): 1.7
- Brain ([1]; PD20, survival time 20 min): 350 ± 20 ng/g
- Liver ([1]; PD20, survival time 20 min): 1830 ± 70 ng/g
- Plasma ([1]; PD20, survival time 20 min): 1070 ± 100 ng/mL
- brain:plasma KP ratios ([1]; PD20 and older): 0.22-0.35
- Plasma levels ([1]; PD32): 170+30 ng/ml
- Brain:Plasma Kp ratio ([1]; PD32, survival time 20 min): 0.22
- Liver:Plasma Kp ratio ([1]; PD32, survival time 20 min): 1.3
- Brain ([1]; PD32, survival time 20 min): 260 ± 80 ng/g
- Liver ([1]; PD32, survival time 20 min): 1510 ± 640 ng/g
- Plasma ([1]; PD32, survival time 20 min): 1160 ± 730 ng/mL
- Brain:Plasma Kp ratio ([1]; PD50, survival time 45 min): 0.35
- Liver:Plasma Kp ratio ([1]; PD50, survival time 45 min): 1.9
- Brain ([1]; PD50, survival time 45 min): 150 ± 10 ng/g
- Liver ([1]; PD50, survival time 45 min): 820 ± 80 ng/g
- Plasma ([1]; PD50, survival time 45 min): 430 ± 40 ng/mL
- Plasma levels ([1]; adults): 930+220 ng/ml
- liver:plasma KP ratios ([1]; all ages): 1.3-4.2
- brain levels lower than plasma levels [2]: ~10 fold
